From patent publication US7511284B2, “Photostabilisation of fluorescent dyes” (International University Bremen GmbH, priority 2004, dated 2009) come the findings set out here.

Marks after values point to notes of the source that are not given here.

Data set [1] in a line: Fluorescence quantum yield and brightness with and without CB7. In kind it is physicochemical. Details: ε × φf (brightness): unit not given beside the values.
The nature of data set [2]: Absorption and fluorescence maxima with and without CB7. The arrangement: unit not given here. In kind it is physicochemical. The text has this: Addition of cucurbiturils leads to the formation of complexes with fluorescent dyes, which have changed photophysical properties, see examples in Table 3.
Data set [3] can be described thus: Photobleaching of aqueous dye solution under 532-nm Nd-YAG laser irradiation, monitored by UV-Vis absorption.
Description: The addition of cucurbituril (mixture of a plurality of cucurbiturils, wherein cucurbit[7]uril (formula (D), also known as CB7) was the predominant species according to mass spectrometry, with cucurbit[5]uril as a detectable impurity), concentration of cucurbit[7]uril 1-2 mM, mixture prepared as described in C. […] The photostabilisation of the fluorescent dye stabilised by cucurbituril (CB7) was monitored by the characteristic visible absorption band with a Varian Cary 50 UV-VIS spectrophotometer, based on a cucurbituril-free, optically adapted (at 532 nm) solution of the fluorescent dye. The UV-Vis spectra were recorded at different irradiation times (FIG. 1), and the decreasing absorption (A) at 532 nm was plotted against the pertinent function log([10^A0−1]/[10^A−1]). […] The concentrations with and without cucurbit[7]uril are not identical, but were so chosen that the absorbance at 532 nm was identical at the start of irradiation. The concentration of rhodamine 6G was lower in samples containing cucurbit[7]uril than in samples without cucurbit[7]uril owing to a higher extinction coefficient.
The quantum yield of the photobleaching was determined by means of the initial linear region of the graph (FIG. 2) of the ratio of the gradients S(D)/S(D+CB7)=εDφb(D)/[εD+CB7φb(D+CB7)], wherein εD+CB7 and εD are the extinction coefficient of the dye (D) with and without CB7 at the irradiation wavelength of 532 nm.
The chosen stabilisation factor was the ratio of the quantum yields of the photobleaching in the absence and presence of CB7.
A short description of data set [4]: Photostabilisation of fluorescent dyes by cucurbiturils (preliminary tests, tests carried out hitherto). To be noted: for photostabilisation by the use of a cucurbituril: in particular cucurbit[7]uril; for photostabilisation of conventional fluorescent dyes by the cucurbituril: preliminary tests, in particular xanthene and cyanine fluorescent dyes.
Data set [5] is described as follows: Decrease of fluorescence intensity of dye solutions stored in daylight (ambient light). In kind it is physicochemical. The note with it: for Stabilisation factor: with 1 mM CB7, daylight; for fluorescence intensity after exposure to daylight: 300 hours. On the procedure: As an alternative, the decrease in the fluorescence intensity of the above-described solutions was determined by observing their fluorescence (Cary Eclipse Fluorometer, Varian) when the solutions were stored in daylight (ambient light). The fluorescence intensity remained unchanged over the observation period for the solution containing cucurbituril, whereas it felt markedly for the cucurbituril-free solution (FIG. 3), with approximate half-lives of about 80 to 390 hours, depending on the sample vessel.

The nature of data set [6]: Decrease in photon count rate in fluorescence correlation spectroscopy (FCS) on a confocal microscope. The data set is classed as physicochemical. The note with it: for relative photon count rate: irradiation for 2000 seconds; for count rate present: after 30 minutes irradiation, 10 nM dye. On the procedure:
Aqueous solutions of fluorescent dyes (10 nM) with and without cucurbit[7]uril (1 mM) were also studied by fluorescence correlation spectroscopy (FCS) on a confocal microscope (Carl Zeiss LSM 510 Confocor 2), which is used for several applications relevant for biology, biochemistry and spectroscopy. 400 μl of each solution were transferred to an 8-chamber cover glass system and irradiated with the light of a CW laser. The decrease in the count rate, which is directly proportional to the mean fluorescence intensity of the sample, was measured against the irradiation time. […] Considerable photostabilisation can again be seen, because without cucurbit[7]uril less than 30%, but with cucurbit[7]uril still more than 90% of the count rate is present after 30 minutes. The observed photostabilisation factors are contained in Table 2 (footnotes b, c, d).
The photon count rate in samples containing cucurbit[7]uril fell during irradiation for 2000 seconds only to about 95%, while the […] of the cucurbit[7]uril-free sample fell to about 25% of the initial value in the same time.

For the compound `Cc1cc(=O)oc2c3c4c(cc12)CCCN4CCC3` [Coumarin-102, coumarin 102], the “absorbance (extinction coefficient) and fluorescence quantum yield (intensity) in a complex with cucurbituril versus without” value in data set [1] is on record as “greater”. The “ε × φf (brightness)” value in data set [1] (with 1 mM CB7) came to 17807; in data set [1] (without CB7), 14388. The values for the φf in data set [1] (with 1 mM CB7) and in data set [1] (without CB7) were 0.754 and 0.66, respectively. In addition, the λabs max in data set [2] (with 1 mM CB7) was determined as 404.6; in data set [2] (without CB7), 392.6. Also, the results for the λem max in data set [2] (with 1 mM CB7) and in data set [2] (without CB7) were 476.0 and 489.0, respectively.

On to `CCN1C(=CC=CC2=[N+](CC)c3ccc(S(=O)(=O)[O-])cc3C2(C)C)C(C)(C)c2cc(S(=O)(=O)O)ccc21` [Cyanine 3, cyanine 3], for which, in data set [1] (with 1 mM CB7), the “ε × φf (brightness)” value is 11502 and the φf is on record as 0.108. Moreover, in data set [1] (without CB7), the “ε × φf (brightness)” value is given as 18000 and the φf came out at 0.15. Moreover, in data set [2] (with 1 mM CB7), the λabs max worked out at 558.6 and the λem max came to 571.0. Besides, in data set [2] (without CB7), the λabs max is 544.6 and the λem max worked out at 560.0.

Take `CCN1C(=CC=CC=CC2=[N+](CC)c3ccc(S(=O)(=O)[O-])cc3C2(C)C)C(C)(C)c2cc(S(=O)(=O)O)ccc21` [Cyanine 5, cyanine 5]: in data set [1], the “absorbance (extinction coefficient) and fluorescence quantum yield (intensity) in a complex with cucurbituril versus without” value is listed as “greater”. Also, in data set [1] (with 1 mM CB7), the “ε × φf (brightness)” value amounted to 51000 and the φf was 0.456. Further, in data set [1] (without CB7), the “ε × φf (brightness)” value stood at 37260 and the φf is on record as 0.27. Also, in data set [2] (with 1 mM CB7), the λabs max worked out at 642.2 and the λem max was 657.0. In addition, in data set [2] (without CB7), the λabs max was 642.0 and the λem max was 660.0.

For `CCN=c1cc2oc3cc(NCC)c(C)cc3c(-c3ccccc3C(=O)OCC)c-2cc1C.Cl` [Rhodamine 6G, rhodamine 6G], the Stabilisation factor is given as 30.0^a in data set [3] (1 mM CB7, 3 μM dye solutions, 532-nm laser light (1.3 W, 10 Hz) of a Nd-YAG laser); 7.5* in data set [3] (with 1 mM CB7, high laser power (2.1 W), 532 nm); 30* in data set [3] (with 1 mM CB7, low laser power (1.3 W), 532 nm); >500* in data set [5] (quartz cuvette); >5000* in data set [5] (screw-top glass bottle). For the same compound, the “number of absorption cycles before a molecule decomposes” value in data set [3] (with addition of cucurbit[7]uril (CB7 solution)) is 22 million; in data set [3] (without cucurbit[7]uril) it was 0.8 million. For the same compound, the results for the “ε × φf (brightness)” value in data set [1] (with 1 mM CB7) and in data set [1] (without CB7) were 81594 and 71218, respectively. Also, the φf in data set [1] (with 1 mM CB7) is on record as 0.883; in data set [1] (without CB7), 0.89. Also, the λabs max was found to be 534.6 in data set [2] (with 1 mM CB7) and 526.0 in data set [2] (without CB7). Further, the λem max in data set [2] (with 1 mM CB7) was determined as 555.0; in data set [2] (without CB7) it was 552.0. The “photostabilisation by the use of a cucurbituril” value (“photostabilisation by the use” for short) in data set [4] was “Particularly good photostabilisation”. In addition, the “fluorescence intensity after exposure to daylight” value in data set [5] (with cucurbit[7]uril in glass bottles) was “hardly decreases at all”; in data set [5] (without cucurbit[7]uril, glass bottle), 60 % of the original value; in data set [5] (without cucurbit[7]uril, quartz cuvettes), 90 % of the original value.

Take `CN(C)c1ccc2c(-c3ccccc3C(=O)[O-])c3ccc(N(C)C)cc3[o+]c2c1` [Tetramethylrhodamine, tetramethylrhodamine]: the Stabilisation factor in data set [6] (1 mM CB7, 10 nM dye solutions, 514-nm laser light (30 mW, cw), FCS, after 35 minutes, via photon count rate) is reported as 4.3^b. Besides, the “relative photon count rate” value is “about 25 % of the initial value” in data set [6] (cucurbit[7]uril-free sample) and “about 95 % of the initial value” in data set [6] (with cucurbit[7]uril). The count rate present result in data set [6] (with cucurbit[7]uril (1 mM)) is given as “more than 90%”; in data set [6] (without cucurbit[7]uril) it was “less than 30%”. The “ε × φf (brightness)” value in data set [1] (with 1 mM CB7) is on record as 20277; in data set [1] (without CB7), 17553. Besides, the values for the φf in data set [1] (with 1 mM CB7) and in data set [1] (without CB7) were 0.271 and 0.20, respectively. Besides, the λabs max in data set [2] (with 1 mM CB7) is 558.6; in data set [2] (without CB7), 552.6. The λem max in data set [2] (with 1 mM CB7) was determined as 582.0; in data set [2] (without CB7), 577.0. Further, in data set [4], the “photostabilisation by the use” value is on record as “Particularly good photostabilisation”.

Take `Cc1c(C)c2cc3c4c(c2oc1=O)CCCN4CCC3` [coumarin 39]: the “photostabilisation by the use” value in data set [4] is listed as “Particularly good photostabilisation”.

As to `O=C1N2CN3C(=O)N4CN5C(=O)N6CN7C(=O)N8CN9C(=O)N%10CN1C1C2N2CN%11C(=O)N(CN%12C(=O)N(CN%13C(=O)N(CN%14C(=O)N(CN1C2=O)C%10C%149)[C@H]8[C@H]7%13)[C@H]6[C@H]5%12)C4C3%11` (some centres unmarked) [cucurbit[5]uril], the “photostabilisation of conventional fluorescent dyes by the cucurbituril” value (shortened to “photostabilisation … by the cucurbituril”) in data set [4] is given as “best photostabilisation”.

With `O=C1N2CN3C(=O)N4CN5C(=O)N6CN7C(=O)N8CN9C(=O)N%10CN%11C(=O)N%12CN1C1C2N2CN%13C(=O)N(CN%14C(=O)N(CN%15C(=O)N(CN%16C(=O)N(CN%17C(=O)N(CN1C2=O)C%12C%11%17)C%10C9%16)C8C7%15)C6C5%14)C4C3%13` (centres unmarked) [cucurbit[6]uril], the “photostabilisation … by the cucurbituril” value in data set [4] is “best photostabilisation”.

Take `O=C1N2CN3C(=O)N4CN5C(=O)N6CN7C(=O)N8CN9C(=O)N%10CN%11C(=O)N%12CN%13C(=O)N%14CN%15C(=O)N%16CN1C1C2N2CN%17C(=O)N(CN%18C(=O)N(CN%19C(=O)N(CN%20C(=O)N(CN%21C(=O)N(CN%22C(=O)N(CN%23C(=O)N(CN1C2=O)C%16C%15%23)C%14C%13%22)C%12C%11%21)C%10C9%20)C8C7%19)C6C5%18)C4C3%17` (centres unmarked) [cucurbit[8]uril]: the “photostabilisation … by the cucurbituril” value in data set [4] is reported as “best photostabilisation”.

On to `O=C1OC2(c3ccc(O)cc3Oc3cc(O)ccc32)c2ccccc21` [fluorescein], for which, in data set [4] (anionic fluorescent dye), the “improvement in photostability by cucurbiturils according to formulae (B) to (E)” value was “only a slight or no improvement”.

Take rhodamine 123: the “number of absorption cycles before a molecule decomposes” value in data set [3] (without cucurbit[7]uril) turned out to be 1.6 million. In addition, in data set [1] (with 1 mM CB7), the “ε × φf (brightness)” value amounted to 24097 and the φf was 0.362. Moreover, in data set [1] (without CB7), the “ε × φf (brightness)” value is reported as 57470 and the φf was 0.83. In data set [2] (with 1 mM CB7), this compound yielded a λabs max of 502.6 and a λem max of 532.0. In data set [2] (without CB7), this compound yielded a λabs max of 500.0 and a λem max of 525.0. Besides, the “photostabilisation by the use” value in data set [4] is given as “Particularly good photostabilisation”.
